Experimental data published in US6472349B1, “Pyridine-2,3-dicarboxylic acid diamides” (BASF Aktiengesellschaft, priority 1999, dated 2002).

How the values were obtained:
ALOMY = assay: Herbicidal activity post-emergence in greenhouse, blackgrass; format: in vivo; settings: 100 = complete destruction, 0 = no damage
Text: (§1) The herbicidal action of the pyridine-2,3-dicarboxamides of the formula I was examined in greenhouse experiments: […]
(§2) The growing containers used were plastic pots containing loamy sand with approximately 3.0% of humus as the substrate. The seeds of the test plants were sown separately for each species.
(§3) For the post-emergence treatment, the test plants were first grown to a plant height of 3 to 15 cm, depending on the growth habit, and then treated with the active ingredients which had been suspended or emulsified in water. The test plants were either sown directly and grown in the same containers or first grown separately as seedlings and transplanted into the test containers a few days prior to treatment. The rate of application for the post-emergence treatment was 0.5; 0.0625; 0.0313 or 0.0156 kg/ha of a.s.
(§4) Depending on the species, the plants were kept at 10-25° C. or 20-35° C. The test period extended over 2 to 4 weeks. During this time, the plants were tended, and their response to the individual treatments was evaluated.
(§5) Evaluation was carried out using a scale from 0 to 100. 100 means no emergence of the plants or complete destruction of at least the above-ground parts, and 0 means no damage or normal course of growth.
(§6) The plants used in the greenhouse experiments belonged to the following species: […]

IPOSS = assay: Herbicidal activity post-emergence in greenhouse, morning glory; format: in vivo; settings: 100 = complete destruction, 0 = no damage
Text: as §1, §2, §3, §4, §5, §6

AMARE = assay: Herbicidal activity post-emergence in greenhouse, redroot pigweed; format: in vivo; settings: 100 = complete destruction, 0 = no damage
Text: as §1, §2, §3, §4, §5, §6

SOLNI = assay: Herbicidal activity post-emergence in greenhouse, black nightshade; format: in vivo; settings: 100 = complete destruction, 0 = no damage
Text: as §1, §2, §3, §4, §5, §6

GALAP = assay: Herbicidal activity post-emergence in greenhouse, catchweed bedstraw; format: in vivo; settings: application rate 0.5 kg of a.s./ha, 100 = complete destruction, 0 = no damage
Text: as §1, §2, §3, §4, §5, §6

ECGCG = assay: Herbicidal activity post-emergence in greenhouse, barnyard grass; format: in vivo; settings: application rate 0.5 kg of a.s./ha, 100 = complete destruction, 0 = no damage
Text: as §1, §2, §3, §4, §5, §6

VIOAR = assay: Herbicidal activity post-emergence in greenhouse, violet; format: in vivo; settings: application rate 0.5 kg of a.s./ha, 100 = complete destruction, 0 = no damage
Text: as §1, §2, §3, §4, §5, §6

[1] = application rate 0.0313 kg of a.s./ha
[2] = application rate 0.0625 kg of a.s./ha

Compound: CCCNC(=O)c1nc(OC)c(Cl)cc1C(=O)Nc1cccc(Cl)c1C
- Herbicidal activity (scale 0 to 100), ALOMY (ALOMY; [1]): 75
- Herbicidal activity (scale 0 to 100), ALOMY (ALOMY; [2]): 85
- Herbicidal activity (scale 0 to 100), IPOSS (IPOSS; [1]): 98
- Herbicidal activity (scale 0 to 100), IPOSS (IPOSS; [2]): 100
- Herbicidal activity (scale 0 to 100), AMARE (AMARE; [1]): 98
- Herbicidal activity (scale 0 to 100), AMARE (AMARE; [2]): 100
- Herbicidal activity (scale 0 to 100), SOLNI (SOLNI; [1]): 100
- Herbicidal activity (scale 0 to 100), SOLNI (SOLNI; [2]): 100

Compound: CCCNC(=O)c1nc(Cl)c(C)cc1C(=O)Nc1cccc(Cl)c1C
- Herbicidal activity (scale 0 to 100), IPOSS (IPOSS; application rate 0.5 kg of a.s./ha): 100
- Herbicidal activity (scale 0 to 100), GALAP (GALAP): 100
- Herbicidal activity (scale 0 to 100), ECHCG (ECGCG): 100
- Herbicidal activity (scale 0 to 100), VIOAR (VIOAR): 100

Compound: CCCNC(=O)c1nc(C)ccc1C(=O)Nc1cccc2ccccc12 [Example 1, N-n-Propyl-3-(1-naphthyl)aminocarbonyl-6-methylpyridine-2-carboxamide]
- melting point: 175 to 178 °C

Compound: CCCNC(=O)c1nc(C)ccc1C(=O)Nc1cccc(SC)c1C [Example 2, N-n-Propyl-3-(2-methyl-3-methylthiophenyl)aminocarbonyl-6-methylpyridine-2-carboxamide]
- melting point: 151 to 152 °C

Compound: Cc1ccc2c(n1)C(=O)N(c1cccc(S(C)(=O)=O)c1C)C2=O [Example 3, N-(2-Methyl-3-methylsulfonylphenyl)-6-methylpyridine-2,3-dicarboximide]
- melting point: 180 to 181 °C

Compound: CCCNC(=O)c1nc(C)ccc1C(=O)Nc1cccc2ccccc12 [drawing 67]
- Herbicidal activity (scale 0 to 100), ALOMY (ALOMY; [1]): 75
- Herbicidal activity (scale 0 to 100), ALOMY (ALOMY; [2]): 85
- Herbicidal activity (scale 0 to 100), IPOSS (IPOSS; [1]): 98
- Herbicidal activity (scale 0 to 100), IPOSS (IPOSS; [2]): 100
- Herbicidal activity (scale 0 to 100), AMARE (AMARE; [1]): 98
- Herbicidal activity (scale 0 to 100), AMARE (AMARE; [2]): 100
